Results reported in patent US9598424B2 (Takeda Pharmaceutical Company Limited, priority 2014, dated 2017).

Experiments:
TBK1 = target: T1, TBK1 (Homo sapiens, UniProt Q9UHD2); assay: Inhibition of TBK1 in Cells (TLR3 driven ISRE β-lactamase reporter assay); assay type: cell-based; settings: poly IC-LMW stimulation 16 hrs; -log(EC50), EC50 molar; read-out: Inhibition of TBK1 in cells pEC50 (EC) (converted)
T1 construct: host or cells: RA1-ISRE beta-lactamase reporter cells
T1 sequence (Q9UHD2 1-729): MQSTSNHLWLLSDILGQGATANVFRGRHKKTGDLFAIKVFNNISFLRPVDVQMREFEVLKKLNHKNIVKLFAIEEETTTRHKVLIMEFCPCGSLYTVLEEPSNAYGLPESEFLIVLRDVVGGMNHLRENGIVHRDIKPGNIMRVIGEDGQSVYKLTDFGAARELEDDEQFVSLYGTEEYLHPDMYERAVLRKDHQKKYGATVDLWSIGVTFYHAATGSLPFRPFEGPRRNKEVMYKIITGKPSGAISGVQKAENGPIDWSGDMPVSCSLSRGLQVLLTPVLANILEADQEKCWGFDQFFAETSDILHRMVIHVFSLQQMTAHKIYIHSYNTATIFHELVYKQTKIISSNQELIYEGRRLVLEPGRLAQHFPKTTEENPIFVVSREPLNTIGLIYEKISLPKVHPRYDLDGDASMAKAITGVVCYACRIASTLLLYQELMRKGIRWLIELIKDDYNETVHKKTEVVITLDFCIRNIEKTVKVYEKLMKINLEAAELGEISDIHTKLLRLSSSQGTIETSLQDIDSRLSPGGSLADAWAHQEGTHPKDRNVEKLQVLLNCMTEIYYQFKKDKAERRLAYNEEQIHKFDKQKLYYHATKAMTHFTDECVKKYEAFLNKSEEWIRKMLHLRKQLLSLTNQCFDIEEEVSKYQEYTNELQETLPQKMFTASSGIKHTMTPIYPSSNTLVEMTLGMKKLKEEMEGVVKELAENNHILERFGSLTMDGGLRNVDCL
Method in brief: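 RA1-ISRE β-lactamase reporter cells (50,000/well) treated with 11-point 2.5-fold compound dilutions and stimulated with 0.15 mg/ml poly IC-LMW for 16 hrs. Reporter read by CCF4-AM FRET; EC50 from non-linear fit of percent inhibition, reported as pEC50 (molar).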

Full length human TBK1 = target: T2, Full length human TBK1 (Homo sapiens, UniProt Q9UHD2); assay: Inhibition of TBK1 Enzyme (Caliper microfluidic assay); assay type: biochemical; settings: 25 μM ATP, 60 min at RT; -log(IC50), IC50 molar; read-out: TBK1 Inhibition (pIC50) (converted)
T2 construct: Full length human TBK1 with an N-terminal His-tag; His-tag (N); made in house; host or cells: Sf9 insect cells (baculovirus, pFastBac1)
T2 sequence (Q9UHD2 1-729): T1 sequence (Q9UHD2 1-729)
Method in brief: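 Enzyme: His-tagged full-length TBK1 expressed in Sf9. Reaction 60 min at RT in 20 mM Hepes pH 7.4, 10 mM MgCl2, 1 mM EDTA, 0.01% Brij-L23, 1 mM DTT, with 5FAM-peptide (added at 1 μM) and TBK1/ATP mix (added at 3 nM/25 μM), then EDTA-quenched. Conversion measured by microfluidic separation; 11-point 2.5-fold series fit to pIC50.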

C57/BL6 mice = assay: Inhibition of ConA Induced Hepatitis (plasma ALT); assay type: in vivo; settings: Mus musculus; oral, 1 hr before ConA 15 mg/kg i.v.; plasma collected post 8-24 hrs; read-out: ED50 (amount reducing ConA induced increase in plasma ALT level by 50%)
Method: Orally administer compound into normal C57/BL6 mice at several doses. After 1 hr, inject i.v. with ConA 15 mg/kg, (N=5). Post 8-24 hrs, collect plasma and liver. Measure plasma ALT enzyme level. An ED50 is determined as the amount of test compound that reduces ConA induced increase in plasma ALT level by 50%.

EC50 (TBK1) | IC50 (Full length human TBK1) | melting point | Compound | ED50 (C57/BL6 mice)
3310 nM | 79.4 nM | > 275 °C | Cc1c(-c2ccc3nc(NC(=O)C4CC4)cn3c2)n[nH]c1C(=O)NCC(F)(F)F [Example 25, 3-(2-(cyclopropanecarboxamido)imidazo[1,2-a]pyridin-6-yl)-4-methyl-N-(2,2,2-trifluoroethyl)-1H-pyrazole-5-carboxamide] | –
537 nM | 15.8 nM | – | O=C(NCC(F)F)c1nc(-c2ccc3nc(NC(=O)C4CC4)cn3c2)cs1 [Example 86, 4-(2-(cyclopropanecarboxamido)imidazo[1,2-a]pyridin-6-yl)-N-(2,2-difluoroethyl)thiazole-2-carboxamide] | 5 mg/kg
